Converted amounts (≈) assume the structure as drawn.
Legend:
Candida albicans = assay: Antifungal activity against Candida albicans C-A-24 strain; format: functional
[1] = system: Trichophyton interdigitale; assay: Antifungal activity towards Trichophyton interdigitale; format: functional
Aspergillus fumigatus = assay: Antifungal activity against Aspergillus fumigatus Saito strain; format: functional
Trichophyton benhamiae = assay: Antifungal activity towards Trichophyton mentagrophytes 530324 strain; format: functional, Arthroderma benhamiae
Cryptococcus neoformans = assay: Antifungal activity against Cryptococcus neoformans Cr-1 strain; format: functional

SMILES	MIC (Candida albicans)	MIC [1]	MIC (Aspergillus fumigatus)	MIC (Trichophyton benhamiae)	MIC (Cryptococcus neoformans)
IC#CCn1ccnc1	12.5 µg/mL (≈ 53.9 µM)	6.25 µg/mL (≈ 26.9 µM)	12.5 µg/mL (≈ 53.9 µM)	6.25 µg/mL (≈ 26.9 µM)	6.25 µg/mL (≈ 26.9 µM)
NC(=O)c1ccc(-c2nnn(CC#CI)n2)cc1	> 100 µg/mL	3.13 µg/mL (≈ 8.86 µM)	> 100 µg/mL	6.25 µg/mL (≈ 17.7 µM)	12.5 µg/mL (≈ 35.4 µM)
O=[N+]([O-])c1ncnn1CC#CI	3.13 µg/mL (≈ 11.3 µM)	0.78 µg/mL (≈ 2.81 µM)	0.39 µg/mL (≈ 1.4 µM)	0.39 µg/mL (≈ 1.4 µM)	0.78 µg/mL (≈ 2.81 µM)
IC#CCn1nnc(-c2ccccc2)n1	0.78 µg/mL (≈ 2.52 µM)	0.39 µg/mL (≈ 1.26 µM)	0.2 µg/mL (≈ 0.645 µM)	0.2 µg/mL (≈ 0.645 µM)	1.56 µg/mL (≈ 5.03 µM)
IC#CCn1cccn1	3.13 µg/mL (≈ 13.5 µM)	0.39 µg/mL (≈ 1.68 µM)	0.78 µg/mL (≈ 3.36 µM)	0.39 µg/mL (≈ 1.68 µM)	0.78 µg/mL (≈ 3.36 µM)
CC(C)c1nnn(CC#CI)n1	1.56 µg/mL (≈ 5.65 µM)	0.78 µg/mL (≈ 2.83 µM)	0.78 µg/mL (≈ 2.83 µM)	0.78 µg/mL (≈ 2.83 µM)	3.13 µg/mL (≈ 11.3 µM)
O=[N+]([O-])c1ccc(-c2nnn(CC#CI)n2)cc1	25 µg/mL (≈ 70.4 µM)	0.39 µg/mL (≈ 1.1 µM)	6.25 µg/mL (≈ 17.6 µM)	0.2 µg/mL (≈ 0.563 µM)	3.13 µg/mL (≈ 8.81 µM)
CCCc1nnnn1CC#CI	6.25 µg/mL (≈ 22.6 µM)	1.56 µg/mL (≈ 5.65 µM)	3.13 µg/mL (≈ 11.3 µM)	0.78 µg/mL (≈ 2.83 µM)	3.13 µg/mL (≈ 11.3 µM)
IC#CCn1ccnn1	3.13 µg/mL (≈ 13.4 µM)	0.78 µg/mL (≈ 3.35 µM)	0.78 µg/mL (≈ 3.35 µM)	0.78 µg/mL (≈ 3.35 µM)	1.56 µg/mL (≈ 6.69 µM)
CC(=O)c1c(C)cn(CC#CI)c1C	25 µg/mL (≈ 83 µM)	6.25 µg/mL (≈ 20.8 µM)	3.13 µg/mL (≈ 10.4 µM)	1.56 µg/mL (≈ 5.18 µM)	25 µg/mL (≈ 83 µM)
O=[N+]([O-])c1cn(CC#CI)c(Cl)c1Cl	0.78 µg/mL (≈ 2.26 µM)	0.39 µg/mL (≈ 1.13 µM)	0.39 µg/mL (≈ 1.13 µM)	0.1 µg/mL (≈ 0.29 µM)	1.56 µg/mL (≈ 4.52 µM)
O=[N+]([O-])c1c[nH]c(Cl)c1Cl	100 µg/mL (≈ 553 µM)	3.13 µg/mL (≈ 17.3 µM)	25 µg/mL (≈ 138 µM)	6.25 µg/mL (≈ 34.5 µM)	25 µg/mL (≈ 138 µM)
Cc1nnn(CC#CI)n1	1.56 µg/mL (≈ 6.29 µM)	0.78 µg/mL (≈ 3.14 µM)	0.78 µg/mL (≈ 3.14 µM)	0.78 µg/mL (≈ 3.14 µM)	0.78 µg/mL (≈ 3.14 µM)
O=[N+]([O-])c1cn(CC#CI)cn1	6.25 µg/mL (≈ 22.6 µM)	0.78 µg/mL (≈ 2.82 µM)	0.78 µg/mL (≈ 2.82 µM)	0.2 µg/mL (≈ 0.722 µM)	0.1 µg/mL (≈ 0.361 µM)
IC#CCn1cncn1	3.13 µg/mL (≈ 13.4 µM)	0.78 µg/mL (≈ 3.35 µM)	0.39 µg/mL (≈ 1.67 µM)	0.78 µg/mL (≈ 3.35 µM)	0.78 µg/mL (≈ 3.35 µM)
CC(C)c1nnnn1CC#CI	12.5 µg/mL (≈ 45.3 µM)	1.56 µg/mL (≈ 5.65 µM)	6.25 µg/mL (≈ 22.6 µM)	3.13 µg/mL (≈ 11.3 µM)	25 µg/mL (≈ 90.6 µM)
CCCCCc1nnnn1CC#CI	3.13 µg/mL (≈ 10.3 µM)	0.1 µg/mL (≈ 0.329 µM)	0.39 µg/mL (≈ 1.28 µM)	0.2 µg/mL (≈ 0.658 µM)	3.13 µg/mL (≈ 10.3 µM)
Clc1ccccc1C(c1ccccc1)(c1ccccc1)n1ccnc1 [CLOTRIMAZOLE]	6.25 µg/mL (≈ 18.1 µM)	0.39 µg/mL (≈ 1.13 µM)	1.56 µg/mL (≈ 4.52 µM)	0.39 µg/mL (≈ 1.13 µM)	1.56 µg/mL (≈ 4.52 µM)
Clc1cc(Cl)c(OCC#CI)cc1Cl [HALOPROGIN]	3.13 µg/mL (≈ 8.66 µM)	0.39 µg/mL (≈ 1.08 µM)	3.13 µg/mL (≈ 8.66 µM)	0.39 µg/mL (≈ 1.08 µM)	1.56 µg/mL (≈ 4.32 µM)

Now from value to compound:

MIC (Candida albicans)	MIC [1]	MIC (Aspergillus fumigatus)	MIC (Trichophyton benhamiae)	MIC (Cryptococcus neoformans)	SMILES
25 µg/mL (≈ 38.3 µM)	12.5 µg/mL (≈ 19.1 µM)	25 µg/mL (≈ 38.3 µM)	12.5 µg/mL (≈ 19.1 µM)	25 µg/mL (≈ 38.3 µM)	COc1ccc(Cl)cc1C(=O)c1cccn1CC(I)=C(I)I
6.25 µg/mL (≈ 10.6 µM)	3.13 µg/mL (≈ 5.31 µM)	6.25 µg/mL (≈ 10.6 µM)	1.56 µg/mL (≈ 2.65 µM)	6.25 µg/mL (≈ 10.6 µM)	O=C(c1ccccc1)c1cccn1CC(I)=C(I)I
3.13 µg/mL (≈ 5.59 µM)	0.39 µg/mL (≈ 0.697 µM)	0.78 µg/mL (≈ 1.39 µM)	0.2 µg/mL (≈ 0.357 µM)	1.56 µg/mL (≈ 2.79 µM)	CCOCCc1nnn(CC(I)=C(I)I)n1
25 µg/mL (≈ 59.4 µM)	6.25 µg/mL (≈ 14.8 µM)	12.5 µg/mL (≈ 29.7 µM)	6.25 µg/mL (≈ 14.8 µM)	25 µg/mL (≈ 59.4 µM)	O=[N+]([O-])c1c(Cl)cccc1-c1cn(CC#CI)cc1Cl
> 100 µg/mL	6.25 µg/mL (≈ 17.7 µM)	> 100 µg/mL	25 µg/mL (≈ 70.6 µM)	100 µg/mL (≈ 282 µM)	O=C(O)c1ccc(-c2nnn(CC#CI)n2)cc1
25 µg/mL (≈ 47.4 µM)	1.56 µg/mL (≈ 2.96 µM)	1.56 µg/mL (≈ 2.96 µM)	0.78 µg/mL (≈ 1.48 µM)	> 25 µg/mL	IC(I)=C(I)Cn1nnnc1C1CC1
1.56 µg/mL (≈ 2.87 µM)	0.39 µg/mL (≈ 0.718 µM)	3.13 µg/mL (≈ 5.77 µM)	0.78 µg/mL (≈ 1.44 µM)	3.13 µg/mL (≈ 5.77 µM)	COC(=O)c1cccn1CC(I)=C(I)I
1.56 µg/mL (≈ 3.2 µM)	0.39 µg/mL (≈ 0.801 µM)	0.2 µg/mL (≈ 0.411 µM)	0.78 µg/mL (≈ 1.6 µM)	6.25 µg/mL (≈ 12.8 µM)	IC(I)=C(I)Cn1cncn1
> 100 µg/mL	0.78 µg/mL (≈ 1.34 µM)	> 100 µg/mL	0.1 µg/mL (≈ 0.172 µM)	> 100 µg/mL	Fc1ccc(-c2nnn(CC(I)=C(I)I)n2)cc1
6.25 µg/mL (≈ 10.5 µM)	0.39 µg/mL (≈ 0.657 µM)	0.78 µg/mL (≈ 1.31 µM)	0.1 µg/mL (≈ 0.168 µM)	0.78 µg/mL (≈ 1.31 µM)	COc1ccc(-c2nnnn2CC(I)=C(I)I)cc1
0.78 µg/mL (≈ 1.6 µM)	0.39 µg/mL (≈ 0.801 µM)	0.39 µg/mL (≈ 0.801 µM)	0.2 µg/mL (≈ 0.411 µM)	1.56 µg/mL (≈ 3.2 µM)	IC(I)=C(I)Cn1nccn1
12.5 µg/mL (≈ 18.5 µM)	6.25 µg/mL (≈ 9.26 µM)	12.5 µg/mL (≈ 18.5 µM)	3.13 µg/mL (≈ 4.64 µM)	12.5 µg/mL (≈ 18.5 µM)	O=[N+]([O-])c1c(Cl)cccc1-c1cn(CC(I)=C(I)I)cc1Cl

From ChEMBL document CHEMBL1123701, “Synthesis and quantitative structure-activity relationship analysis of N-triiodoallyl- and N-iodopropargylazoles. New antifungal agents” (1987)
